Assays:
Assay in all cases: relative viability (nuclei count vs DMSO), 5 days (fraction); higher = more cells survive
Ponatinib + Crizotinib = compound: Cc1ccc(C(=O)Nc2ccc(CN3CCN(C)CC3)c(C(F)(F)F)c2)cc1C#Cc1cnc2cccnn12 [Ponatinib] + C[C@@H](Oc1cc(-c2cnn(C3CCNCC3)c2)cnc1N)c1c(Cl)ccc(F)c1Cl [Crizotinib] (partner 1 µM)
Procedure, shortened: (§1)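 Lung cancer cell lines, seeded in 1536-well plates, were treated the following day by pin tool with a single drug or with five library-drug doses (not always all listed) in √10 steps on top of a fixed anchor-drug dose. Cells were fixed and nuclei stained in one step after 5 days, and nuclei were counted. Relative viability is the nuclei count for treated wells divided by that for vehicle wells, reported as medians of duplicate plates.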

Ponatinib + Decitabine = compound: Cc1ccc(C(=O)Nc2ccc(CN3CCN(C)CC3)c(C(F)(F)F)c2)cc1C#Cc1cnc2cccnn12 [Ponatinib] + Nc1ncn([C@H]2C[C@H](O)[C@@H](CO)O2)c(=O)n1 [Decitabine] (partner 2 µM)
Procedure, shortened: as §1

Pazopanib + Tozasertib = compound: Cc1ccc(Nc2nccc(N(C)c3ccc4c(C)n(C)nc4c3)n2)cc1S(N)(=O)=O [Pazopanib] + Cc1cc(Nc2cc(N3CCN(C)CC3)nc(Sc3ccc(NC(=O)C4CC4)cc3)n2)n[nH]1 [Tozasertib] (partner 0.1 µM)
Procedure, shortened: as §1

Pazopanib + Vorinostat = compound: Cc1ccc(Nc2nccc(N(C)c3ccc4c(C)n(C)nc4c3)n2)cc1S(N)(=O)=O [Pazopanib] + O=C(CCCCCCC(=O)Nc1ccccc1)NO [Vorinostat] (partner 1 µM)
Procedure, shortened: as §1

Cell Line | relative viability (Ponatinib + Crizotinib; first compound 0.002 µM) | relative viability (Ponatinib + Crizotinib; first compound 0.006325 µM) | relative viability (Ponatinib + Crizotinib; first compound 0.06325 µM) | relative viability (Ponatinib + Crizotinib; first compound 0.2 µM) | relative viability (Ponatinib + Decitabine; first compound 0.002 µM) | relative viability (Ponatinib + Decitabine; first compound 0.006325 µM) | relative viability (Ponatinib + Decitabine; first compound 0.06325 µM) | relative viability (Ponatinib + Decitabine; first compound 0.2 µM) | relative viability (Pazopanib + Tozasertib; first compound 0.01 µM) | relative viability (Pazopanib + Tozasertib; first compound 0.03162 µM) | relative viability (Pazopanib + Tozasertib; first compound 0.1 µM) | relative viability (Pazopanib + Tozasertib; first compound 0.3162 µM) | relative viability (Pazopanib + Tozasertib; first compound 1 µM) | relative viability (Pazopanib + Vorinostat; first compound 0.01 µM) | relative viability (Pazopanib + Vorinostat; first compound 0.03162 µM) | relative viability (Pazopanib + Vorinostat; first compound 0.1 µM) | relative viability (Pazopanib + Vorinostat; first compound 0.3162 µM) | relative viability (Pazopanib + Vorinostat; first compound 1 µM)
NCI-H838 | 0.793 | 0.95 | 0.813 | 0.789 | 0.417 | 0.475 | 0.458 | 0.487 | 0.278 | 0.247 | 0.29 | 0.28 | 0.295 | 0.72 | 0.734 | 0.816 | 0.706 | 0.794
NCI-H460 | 0.764 | 0.863 | 1.02 | 0.908 | 0.533 | 0.471 | 0.559 | 0.454 | 0.564 | 0.503 | 0.523 | 0.494 | 0.393 | 0.719 | 0.765 | 0.749 | 0.677 | 0.723
LOU-NH91 | 0.709 | 0.777 | 0.758 | 0.731 | 0.778 | 0.788 | 0.868 | 0.766 | 0.647 | 0.664 | 0.749 | 0.781 | 0.698 | 0.873 | 0.964 | 0.917 | 1.02 | 0.942
NCI-H322M | 0.913 | 0.961 | 0.816 | 0.66 | 0.681 | 0.688 | 0.736 | 0.629 | 0.536 | 0.518 | 0.547 | 0.448 | 0.476 | 0.916 | 0.989 | 0.765 | 0.948 | 0.995
NCI-H520 | 0.682 | 0.843 | 0.841 | 0.581 | 0.426 | 0.483 | 0.45 | 0.411 | 0.458 | 0.416 | 0.452 | 0.438 | 0.386 | 0.678 | 0.717 | 0.742 | 0.581 | 0.549
NCI-H661 | 1.02 | 1.04 | 0.99 | 1.13 | 0.524 | 0.537 | 0.562 | 0.515 | 0.343 | 0.355 | 0.349 | 0.347 | 0.344 | 0.773 | 0.808 | 0.875 | 0.759 | 0.802
NCI-H727 | 0.853 | 0.686 | 0.893 | 0.765 | 0.909 | 1.01 | 0.838 | 0.933 | 0.599 | 0.543 | 0.622 | 0.631 | 0.704 | 1.17 | – | 1.06 | 1.15 | 1.08
NCI-H1944 | 1.07 | 1.24 | 1.23 | 1.01 | 0.422 | 0.433 | 0.482 | 0.43 | – | 0.234 | 0.258 | 0.252 | 0.257 | 0.487 | 0.557 | 0.583 | 0.604 | 0.648
NCI-H1734 | 0.638 | 0.657 | 0.647 | 0.577 | 0.477 | 0.459 | 0.524 | 0.429 | 0.262 | 0.242 | 0.28 | 0.261 | 0.234 | 0.66 | 0.864 | 0.882 | 0.942 | 0.875
LXF-289 | 0.769 | 0.825 | 0.821 | 0.792 | 0.388 | 0.359 | 0.36 | 0.379 | 0.223 | 0.213 | 0.189 | 0.189 | 0.175 | 0.767 | 0.798 | 0.779 | 0.732 | 0.812
H3255 | 0.861 | 0.916 | 0.951 | 0.727 | 0.566 | 0.512 | 0.717 | 0.552 | 0.489 | 0.629 | 0.986 | 0.656 | 0.734 | 0.709 | 0.841 | 0.701 | 0.901 | 0.793
201T | 1.03 | 1.07 | 1.06 | 1.02 | 0.849 | 0.862 | 0.914 | 0.811 | 0.961 | 1 | 0.961 | 0.908 | 0.926 | 0.892 | 0.949 | 0.937 | 1.02 | 0.843
NCI-H2126 | 0.97 | 1.02 | 1.1 | 1.03 | 0.587 | 0.585 | 0.667 | 0.545 | 0.805 | 0.828 | 0.877 | 0.86 | 0.842 | 0.588 | 0.747 | 0.76 | 0.822 | 0.732
HOP-62 | 0.876 | 0.94 | 0.901 | 0.917 | 0.213 | 0.168 | 0.21 | 0.183 | 0.366 | 0.388 | 0.307 | 0.431 | 0.286 | 0.494 | 0.584 | 0.474 | 0.656 | 0.496
NCI-H596 | 0.905 | 0.891 | 0.917 | 0.843 | 0.925 | 0.999 | 0.984 | 1 | – | 0.942 | 0.856 | 0.936 | 0.761 | 0.598 | 0.634 | 0.578 | 0.691 | 0.642
NCI-H1755 | 0.858 | 0.869 | 0.896 | 0.822 | 0.701 | 0.73 | 0.719 | 0.639 | 0.584 | 0.614 | 0.561 | 0.557 | 0.567 | 0.65 | 0.744 | 0.876 | 0.812 | 0.75
NCI-H2023 | 0.711 | 0.769 | 0.788 | 0.664 | 0.24 | 0.196 | 0.244 | 0.21 | 0.467 | 0.318 | 0.38 | 0.331 | 0.242 | 0.551 | 0.712 | 0.745 | 0.637 | 0.827
NCI-H2009 | 1.04 | 0.975 | 1.11 | 1.02 | 0.399 | 0.343 | 0.354 | 0.372 | 0.787 | 0.738 | 0.613 | 0.801 | 0.51 | 0.72 | 0.744 | 0.757 | 0.692 | 0.765

— the supplement of paper PMC10307832
